According to patent US3932625A, “Method and compound for parasite control” (Purdue Research Foundation, priority 1974, dated 1976):

How the values were obtained:
[1] = Single-dose acute toxicity (lethal dose, 50% kill of test animals); conditions: rat, in vivo, rats, route not stated, read-out: LD50 (lethal dose as measured by a 50% kill of test animals)
Description: Thus, 5-Thio-D-glucose is suitable for administering to animals and/or humans.

[2] = test system: transport of real D-glucose across a cell membrane; conditions: stated as known characteristic; cited from earlier work

For `OC[C@H]1SC(O)[C@H](O)[C@@H](O)[C@@H]1O` (stereo partly drawn) [5-Thio-D-glucose], the LD50 [1] is given as 14000 mg/kg and the “inhibition of transport of real D-glucose across a cell membrane” value [2] is given as “inhibiting the transport of real D-glucose across a cell membrane”.
